The record followed here is ChEMBL document CHEMBL3244316, “Pharmacology of some metabolites of triazolam, alprazolam, and diazepam prepared by a simple, one-step oxidation of benzodiazepines” (1978).

Holding throughout (type): functional
Holding throughout (details): CF-1, ip

The test system of assay [1] is Mus musculus. Put plainly: Anticonvulsant activity in ip dosed albino CF-1 mouse assessed as inhibition of nicotine-induced seizures.
Assay [2] deals with Mus musculus. Put plainly: Anticonvulsant activity in ip dosed albino CF-1 mouse assessed as inhibition of pentylenetetrazole-induced seizures.
Assay [3] deals with Mus musculus. Put plainly: Anticonvulsant activity in ip dosed albino CF-1 mouse assessed as inhibition of thiosemicarbazide-induced seizures.
Assay [4] relates to Mus musculus. Put plainly: Anticonvulsant activity in ip dosed albino CF-1 mouse assessed as inhibition of strychnine-induced seizures.
Assay [5] relates to Mus musculus. Put plainly: Anticonvulsant activity in ip dosed albino CF-1 mouse assessed as inhibition of maximal electric shock-induced seizures.
For assay [6], the system named is Mus musculus. Put plainly: Antidepressant activity in ip dosed albino CF-1 mouse assessed as inhibition of ethanol-induced response.
The test system of assay [7] is Mus musculus. Put plainly: Anxiolytic activity in ip dosed albino CF-1 mouse under hypoxic stress.
Assay [8] concerns Mus musculus. Put plainly: Effect on motor activity in ip dosed albino CF-1 mouse by traction test.
The test system of assay [9] is Mus musculus. Put plainly: Effect on motor activity in ip dosed albino CF-1 mouse by chimney test.
Assay [10] concerns Mus musculus. Put plainly: Effect on motor activity in ip dosed albino CF-1 mouse by dish test.
The test system of assay [11] is Mus musculus. Put plainly: Effect on motor activity in ip dosed albino CF-1 mouse by pedestal test.

A word on the ED50: it is the midpoint of the dose-response relation. Take `Cc1nnc2n1-c1ccc(Cl)cc1C(c1ccccc1Cl)=NC2O` (stereo not given): the ED50 with Mus musculus [1] was 10 mg/kg; in the assay on Mus musculus [2] it was 14 mg/kg; with Mus musculus [3] it was 11.2 mg/kg; with Mus musculus [4] it was more than 80 mg/kg; in the assay on Mus musculus [5], more than 100 mg/kg; in the assay on Mus musculus [6], more than 80 mg/kg. The ED50 with Mus musculus [7] was more than 100 mg/kg; in the assay with Mus musculus [8], more than 100 mg/kg; in the assay on Mus musculus [9], 45 mg/kg; with Mus musculus [10], 8 mg/kg; in the assay on Mus musculus [11] it was 11 mg/kg.

Consider `OCc1nnc2n1-c1ccc(Cl)cc1C(c1ccccc1)=NC2`, for which the ED50 in the assay on Mus musculus [1] stood at 0.08 mg/kg; in the assay on Mus musculus [2] it was 0.22 mg/kg; in the assay on Mus musculus [3], 0.08 mg/kg; with Mus musculus [4], 9.9 mg/kg; in the assay on Mus musculus [5], 50 mg/kg; in the assay on Mus musculus [6], 1.8 mg/kg. Besides, the ED50 in the assay on Mus musculus [7] was found to be 0.02 mg/kg; in the assay with Mus musculus [8] it was 8 mg/kg; in the assay with Mus musculus [9] it was 0.63 mg/kg; with Mus musculus [10] it was 2 mg/kg.

As for `CN(C)Cc1nnc2n1-c1ccc(Cl)cc1C(c1ccccc1)=NC2O` (stereo not given), the ED50 in the assay on Mus musculus [1] is 2.2 mg/kg; in the assay with Mus musculus [2], 4 mg/kg; in the assay with Mus musculus [3], 0.88 mg/kg; with Mus musculus [4] it was more than 40 mg/kg; in the assay on Mus musculus [5], more than 100 mg/kg; in the assay on Mus musculus [6] it was more than 20 mg/kg. The ED50 with Mus musculus [7] turned out to be 25 mg/kg; with Mus musculus [8], 22 mg/kg; with Mus musculus [9], 4 mg/kg; in the assay with Mus musculus [10], 5 mg/kg; with Mus musculus [11] it was 22 mg/kg.

For `OCc1nnc2n1-c1ccc(Cl)cc1C(c1ccccc1Cl)=NC2`, the ED50 with Mus musculus [1] turned out to be 0.01 mg/kg; in the assay on Mus musculus [2], 0.018 mg/kg; in the assay with Mus musculus [3], 0.014 mg/kg; with Mus musculus [4], 0.5 mg/kg; in the assay with Mus musculus [5], 89 mg/kg; in the assay on Mus musculus [6] it was 0.4 mg/kg. For the same compound, the ED50 in the assay on Mus musculus [7] worked out at 0.5 mg/kg; in the assay on Mus musculus [8] it was 0.6 mg/kg; in the assay with Mus musculus [9], 0.14 mg/kg; with Mus musculus [10] it was 0.03 mg/kg; in the assay with Mus musculus [11], 0.17 mg/kg.

In the case of `OCc1nnc2n1-c1ccc(Cl)cc1C(c1ccccc1Cl)=NC2O` (stereo not given), the ED50 in the assay on Mus musculus [1] was 1 mg/kg; in the assay on Mus musculus [2], 32 mg/kg; in the assay on Mus musculus [3] it was 0.39 mg/kg; in the assay with Mus musculus [4], more than 80 mg/kg; in the assay with Mus musculus [5] it was more than 100 mg/kg; in the assay on Mus musculus [6] it was 50 mg/kg. The ED50 is 30 mg/kg in the assay on Mus musculus [7]; more than 100 mg/kg with Mus musculus [8]; 2.2 mg/kg with Mus musculus [9]; 5 mg/kg in the assay with Mus musculus [10]; 44 mg/kg in the assay on Mus musculus [11].

Turning to `OCc1nnc2n1-c1ccc(Cl)cc1C(c1ccccc1)=NC2O` (stereo not given), the ED50 is 6.2 mg/kg in the assay on Mus musculus [1]; 40 mg/kg in the assay with Mus musculus [2]; 8.9 mg/kg with Mus musculus [3]; more than 80 mg/kg in the assay on Mus musculus [4]; more than 100 mg/kg in the assay with Mus musculus [5]; more than 80 mg/kg in the assay on Mus musculus [6]. Moreover, the ED50 with Mus musculus [7] was more than 50 mg/kg; in the assay with Mus musculus [8], more than 100 mg/kg; in the assay on Mus musculus [9] it was more than 80 mg/kg; in the assay on Mus musculus [10] it was 56 mg/kg; with Mus musculus [11] it was more than 80 mg/kg.

On to `Clc1ccc2c(c1)C(c1ccccc1)=NCc1nccn1-2`, for which the 50% effective dose (ED50) is 1 mg/kg in the assay with Mus musculus [1]; 2.2 mg/kg with Mus musculus [2]; 1.6 mg/kg with Mus musculus [3]; 7 mg/kg in the assay on Mus musculus [4]; 32 mg/kg with Mus musculus [5]; 3.6 mg/kg in the assay with Mus musculus [6]. The ED50 in the assay with Mus musculus [7] was determined as 25 mg/kg; in the assay on Mus musculus [8] it was 16 mg/kg; in the assay on Mus musculus [9] it was 3.6 mg/kg; with Mus musculus [10], 5 mg/kg; with Mus musculus [11] it was 4 mg/kg.

With `OC1N=C(c2ccccc2)c2cc(Cl)ccc2-n2ccnc21` (stereo not given), the ED50 in the assay on Mus musculus [1] was 4 mg/kg; with Mus musculus [2] it was 6.3 mg/kg; in the assay with Mus musculus [3], 6.3 mg/kg; with Mus musculus [4], more than 80 mg/kg; in the assay on Mus musculus [5], 63 mg/kg; with Mus musculus [6] it was 7.9 mg/kg. Besides, the median effective dose (ED50) in the assay with Mus musculus [7] is 60 mg/kg; in the assay with Mus musculus [8], 32 mg/kg; with Mus musculus [9], more than 25 mg/kg; with Mus musculus [10], 6 mg/kg; in the assay with Mus musculus [11], 7 mg/kg.

As for `Cc1nnc2n1-c1ccc(Cl)cc1C(c1ccccc1)=NC2O` (stereo not given) [4-HYDROXY-ALPRAZOLAM], the ED50 was 4 mg/kg in the assay with Mus musculus [1]; 0.7 mg/kg with Mus musculus [2]; 5 mg/kg in the assay with Mus musculus [3]; 25 mg/kg in the assay on Mus musculus [4]; more than 50 mg/kg in the assay with Mus musculus [5]; 10 mg/kg in the assay with Mus musculus [6]. Further, the ED50 was found to be 6.2 mg/kg with Mus musculus [7]; 23 mg/kg in the assay with Mus musculus [8]; 6.3 mg/kg in the assay with Mus musculus [9]; 6.3 mg/kg with Mus musculus [10]; 20 mg/kg in the assay on Mus musculus [11].

As to `CN(C)Cc1nnc2n1-c1ccc(Cl)cc1C(c1ccccc1)=NC2` [ADINAZOLAM], the ED50 in the assay on Mus musculus [1] was 0.2 mg/kg; in the assay with Mus musculus [2], 0.8 mg/kg; in the assay with Mus musculus [3] it was 0.15 mg/kg; in the assay with Mus musculus [4], more than 200 mg/kg; with Mus musculus [5] it was 100 mg/kg; in the assay on Mus musculus [6] it was 2.2 mg/kg. Besides, the ED50 with Mus musculus [7] was 1.9 mg/kg; in the assay on Mus musculus [8] it was 5.6 mg/kg; in the assay with Mus musculus [9], 3.6 mg/kg; with Mus musculus [10] it was 1.5 mg/kg; with Mus musculus [11], 2.8 mg/kg.

For the compound `Cc1nnc2n1-c1ccc(Cl)cc1C(c1ccccc1)=NC2` [ALPRAZOLAM], the median effective dose (ED50) in the assay with Mus musculus [1] is 0.02 mg/kg; in the assay with Mus musculus [2], 0.13 mg/kg; with Mus musculus [3], 0.16 mg/kg; in the assay with Mus musculus [4] it was 0.3 mg/kg; in the assay on Mus musculus [5], 25 mg/kg; with Mus musculus [6], 0.18 mg/kg. Moreover, the ED50 in the assay on Mus musculus [7] was determined as 0.02 mg/kg; with Mus musculus [8], 0.6 mg/kg; in the assay on Mus musculus [9] it was 0.09 mg/kg; with Mus musculus [10], 0.15 mg/kg; in the assay with Mus musculus [11], 0.23 mg/kg.

As for `CN1C(=O)CN=C(c2ccccc2)c2cc(Cl)ccc21` [DIAZEPAM], the ED50 was 0.1 mg/kg in the assay with Mus musculus [1]; 0.8 mg/kg in the assay with Mus musculus [2]; 0.4 mg/kg in the assay on Mus musculus [3]; 4 mg/kg with Mus musculus [4]; 25 mg/kg in the assay on Mus musculus [5]; 1 mg/kg in the assay on Mus musculus [6]. Further, the 50% effective dose (ED50) in the assay on Mus musculus [7] came out at 0.2 mg/kg; in the assay with Mus musculus [8], 4 mg/kg; with Mus musculus [9] it was 1.2 mg/kg; in the assay on Mus musculus [10] it was 0.25 mg/kg; in the assay on Mus musculus [11], 0.7 mg/kg.

For `O=C1CN=C(c2ccccc2)c2cc(Cl)ccc2N1` [NORDAZEPAM], the ED50 with Mus musculus [1] is 0.3 mg/kg; in the assay on Mus musculus [2], 1.6 mg/kg; in the assay on Mus musculus [3], 1.8 mg/kg; with Mus musculus [4], 20 mg/kg; in the assay on Mus musculus [5], more than 100 mg/kg; in the assay with Mus musculus [6], 1.8 mg/kg. Moreover, the ED50 worked out at 0.7 mg/kg in the assay on Mus musculus [7]; 7 mg/kg in the assay on Mus musculus [8]; 0.7 mg/kg in the assay on Mus musculus [9]; 0.5 mg/kg in the assay with Mus musculus [10]; 0.9 mg/kg in the assay with Mus musculus [11].

As to `O=C1Nc2ccc(Cl)cc2C(c2ccccc2)=NC1O` (stereo not given) [OXAZEPAM], the median effective dose (ED50) amounted to 0.14 mg/kg in the assay on Mus musculus [1]; 0.7 mg/kg with Mus musculus [2]; 0.9 mg/kg with Mus musculus [3]; 9 mg/kg in the assay on Mus musculus [4]; 79 mg/kg in the assay with Mus musculus [5]; 1.8 mg/kg in the assay on Mus musculus [6]. Moreover, the ED50 stood at 12.5 mg/kg in the assay with Mus musculus [7]; 13 mg/kg with Mus musculus [8]; 1.8 mg/kg in the assay with Mus musculus [9]; 1.1 mg/kg with Mus musculus [10]; 2 mg/kg with Mus musculus [11].

Consider `CN1C(=O)C(O)N=C(c2ccccc2)c2cc(Cl)ccc21` (stereo not given) [TEMAZEPAM], for which the ED50 turned out to be 0.063 mg/kg with Mus musculus [1]; 0.3 mg/kg with Mus musculus [2]; 0.3 mg/kg in the assay with Mus musculus [3]; 2.8 mg/kg in the assay with Mus musculus [4]; 10 mg/kg in the assay with Mus musculus [5]; 0.32 mg/kg in the assay on Mus musculus [6]. The ED50 came to 0.2 mg/kg in the assay with Mus musculus [7]; 4 mg/kg with Mus musculus [8]; 0.45 mg/kg with Mus musculus [9]; 0.36 mg/kg in the assay with Mus musculus [10]; 0.7 mg/kg with Mus musculus [11].

For the compound `Cc1nnc2n1-c1ccc(Cl)cc1C(c1ccccc1Cl)=NC2` [TRIAZOLAM], the ED50 in the assay with Mus musculus [1] is 0.004 mg/kg; in the assay on Mus musculus [2], 0.009 mg/kg; in the assay with Mus musculus [3] it was 0.02 mg/kg; in the assay on Mus musculus [4] it was 0.22 mg/kg; in the assay with Mus musculus [5], 30 mg/kg; in the assay with Mus musculus [6] it was 0.7 mg/kg. Moreover, the ED50 came out at 0.035 mg/kg in the assay with Mus musculus [7]; 0.3 mg/kg with Mus musculus [8]; 0.08 mg/kg with Mus musculus [9]; 0.03 mg/kg in the assay with Mus musculus [10]; 0.03 mg/kg in the assay with Mus musculus [11].
